In patent publication US9260408B2, “Dihydroquinoline-2-one derivatives” (Hoffmann-La Roche Inc., priority 2011, dated 2016):

Key:
human CYP11B1 = target: T1, human CYP11B1 (Homo sapiens, UniProt P15538); assay: G-402 cellular enzyme assay, human CYP11B1 (cortisol release, HTRF); type: cell-based; details: G-402 cells expressing human CYP11B1; 1 μM Deoxycortisol
T1 construct: expressed in transfected cells
T1 sequence (P15538 25-503): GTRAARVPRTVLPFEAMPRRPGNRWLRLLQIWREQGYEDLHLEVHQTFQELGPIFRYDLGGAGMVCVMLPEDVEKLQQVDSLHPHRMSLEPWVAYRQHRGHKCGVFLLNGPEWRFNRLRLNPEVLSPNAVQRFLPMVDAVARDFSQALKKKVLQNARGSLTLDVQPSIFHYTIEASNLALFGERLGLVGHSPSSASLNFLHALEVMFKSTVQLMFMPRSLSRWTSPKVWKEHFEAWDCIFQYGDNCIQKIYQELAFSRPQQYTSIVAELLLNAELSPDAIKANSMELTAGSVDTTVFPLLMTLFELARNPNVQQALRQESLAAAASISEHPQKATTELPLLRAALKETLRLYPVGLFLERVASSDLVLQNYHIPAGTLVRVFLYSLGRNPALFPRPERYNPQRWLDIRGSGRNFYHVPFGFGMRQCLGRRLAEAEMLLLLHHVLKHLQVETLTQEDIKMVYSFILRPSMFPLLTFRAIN
Procedure, shortened: (§1)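 EC50 comes from least-squares fitting of a 4-parameter MMF curve to steroid product levels, measured by HTRF as aldosterone for CYP11B2 or cortisol for CYP11B1. Stably transfected G-402 host cells were given substrate (1 μM deoxycorticosterone or deoxycortisol, respectively) with inhibitor for 16 h in medium with 2.5% charcoal-treated FCS.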

human CYP11B2 = target: T2, human CYP11B2 (Homo sapiens, UniProt P19099); assay: G-402 cellular enzyme assay, human CYP11B2 (aldosterone release, HTRF); type: cell-based; details: G-402 cells expressing human CYP11B2; 1 μM Deoxycorticosterone
T2 construct: expressed in transfected cells
T2 sequence (P19099 25-503): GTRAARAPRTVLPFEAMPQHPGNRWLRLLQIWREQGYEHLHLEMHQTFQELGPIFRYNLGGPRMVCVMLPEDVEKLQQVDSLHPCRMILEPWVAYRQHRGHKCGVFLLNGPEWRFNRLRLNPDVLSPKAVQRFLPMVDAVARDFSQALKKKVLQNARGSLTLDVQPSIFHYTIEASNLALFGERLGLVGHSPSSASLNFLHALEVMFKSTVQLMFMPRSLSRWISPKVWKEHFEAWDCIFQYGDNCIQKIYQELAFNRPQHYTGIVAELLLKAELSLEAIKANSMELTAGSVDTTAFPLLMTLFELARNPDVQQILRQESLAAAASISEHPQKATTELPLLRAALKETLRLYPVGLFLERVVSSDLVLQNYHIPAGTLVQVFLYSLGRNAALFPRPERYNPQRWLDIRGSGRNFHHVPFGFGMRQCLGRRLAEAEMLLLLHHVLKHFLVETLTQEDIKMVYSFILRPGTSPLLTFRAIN
Procedure, shortened: as §1

Compound | EC50 (human CYP11B1) | EC50 (human CYP11B2)
CN1C(=O)CCc2cc(-c3cncc(OCCNC(=O)c4cnn(C)c4)c3)ccc21 [Example 103] | 2930 nM | 15 nM
CN1C(=O)CCc2cc(-c3cncc(CNC(=O)c4ccc(Cl)nn4)c3)ccc21 [Example 104] | 94 nM | 10 nM
Cc1cc(C(=O)NCc2cncc(-c3ccc4c(c3)CCC(=O)N4C)c2)c(Cl)nn1 [Example 105] | 2580 nM | 86 nM
CCC(=O)N1CCC[C@H]1COc1cncc(-c2ccc3c(c2)CCC(=O)N3C)c1 [Example 106] | 2680 nM | 20 nM
CN1C(=O)CCc2cc(-c3cncc(CNC(=O)c4cnoc4C4CC4)c3)ccc21 [Example 107] | 44 nM | 2 nM
Cc1nc(C(=O)NCc2cncc(-c3ccc4c(c3)CCC(=O)N4C)c2)c(C(F)(F)F)o1 [Example 108] | 1110 nM | 32 nM
Cc1nc(C(=O)NCc2cncc(-c3ccc4c(c3)CCC(=O)N4C)c2)co1 [Example 109] | 712 nM | 78 nM
CN1C(=O)CCc2cc(-c3cncc(CNC(=O)c4ncoc4C4CC4)c3)ccc21 [Example 110] | 187 nM | 6 nM
Cc1nc(C(=O)NCc2cncc(-c3ccc4c(c3)CCC(=O)N4C)c2)c(C)o1 [Example 111] | 81 nM | 4 nM
Cc1ocnc1C(=O)NCc1cncc(-c2ccc3c(c2)CCC(=O)N3C)c1 [Example 112] | 151 nM | 6 nM
Cc1noc(C)c1C(=O)NC1(c2cncc(-c3ccc4c(c3)CCC(=O)N4C)c2)CC1 [Example 113] | 1570 nM | 75 nM
CN1C(=O)CCc2cc(-c3cncc(CNC(=O)c4cccc(Cl)n4)c3)ccc21 [Example 114] | 142 nM | 8 nM
Cc1cccnc1C(=O)NCc1cncc(-c2ccc3c(c2)CCC(=O)N3C)c1 [Example 115, 3-Methyl-pyridine-2-carboxylic acid [5-(1-methyl-2-oxo-1,2,3,4-tetrahydro-quinolin-6-yl)-pyridin-3-ylmethyl]-amide] | 14 nM | 1 nM
CN1C(=O)CCc2cc(-c3cncc(CNC(=O)c4nc(Cl)ccc4Cl)c3)ccc21 [Example 116] | 81 nM | 3 nM
Cc1cccc(C(=O)NCc2cncc(-c3ccc4c(c3)CCC(=O)N4C)c2)n1 [Example 117] | 121 nM | 8 nM
CN1C(=O)CCc2cc(-c3cncc(CNC(=O)c4ncccc4Cl)c3)ccc21 [Example 118, 3-Chloro-pyridine-2-carboxylic acid [5-(1-methyl-2-oxo-1,2,3,4-tetrahydro-quinolin-6-yl)-pyridin-3-ylmethyl]-amide] | 682 nM | 4 nM
CN1C(=O)CCc2cc(-c3cncc(CNC(=O)c4ncccc4F)c3)ccc21 [Example 119] | 75 nM | 6 nM
CCC(=O)N1CC[C@@H](Oc2cncc(-c3ccc4c(c3)CCC(=O)N4C)c2)C1 [Example 121] | 1370 nM | 19 nM
CCC(=O)N1CC[C@H](Oc2cncc(-c3cc4c(cc3F)N(C)C(=O)CC4)c2)C1 [Example 122] | 535 nM | 9 nM
CN1C(=O)CCc2cc(-c3cncc(CNC(=O)c4ncc(C(F)(F)F)cn4)c3)ccc21 [Example 123] | 2920 nM | 62 nM
Cc1cnc(C(=O)NCc2cncc(-c3ccc4c(c3)CCC(=O)N4C)c2)cn1 [Example 124] | 138 nM | 5 nM
CN1C(=O)CCc2cc(-c3cncc(CNC(=O)c4cnc(Cl)cn4)c3)ccc21 [Example 125] | 154 nM | 3 nM

Compound | EC50 (human CYP11B1) | EC50 (human CYP11B2)
CN1C(=O)CCc2cc(-c3cncc(CNC(=O)c4cnc(C(F)(F)F)cn4)c3)ccc21 [Example 126] | 642 nM | 7 nM
Cc1noc(C)c1C(=O)NCc1cncc(-c2cc3c(cc2F)N(C)C(=O)CC3)c1 [Example 127] | 400 nM | 12 nM
CCC(=O)N1CCC[C@@H]1COc1cncc(-c2ccc3c(c2)CCC(=O)N3C)c1 [Example 128] | 2290 nM | 119 nM
CCC(=O)N1CC(Oc2cncc(-c3ccc4c(c3)CCC(=O)N4C)c2)C1 [Example 129] | 613 nM | 30 nM
CCC(=O)NC1(c2cncc(-c3ccc4c(c3)CCC(=O)N4C)c2)COC1 [Example 130] | 10500 nM | 162 nM
CN1C(=O)CCc2cc(-c3cncc(CNC(=O)c4ncccc4Cl)c3)c(F)cc21 [Example 131, 3-Chloro-pyridine-2-carboxylic acid [5-(7-fluoro-1-methyl-2-oxo-1,2,3,4-tetrahydro-quinolin-6-yl)-pyridin-3-ylmethyl]-amide] | 440 nM | 3 nM
CN1C(=O)CCc2cc(-c3cncc(CNC(=O)c4cc(Cl)nnc4Cl)c3)c(F)cc21 [Example 132] | 4800 nM | 29 nM
CCC(=O)N1CC[C@@H](Oc2cncc(-c3cc4c(cc3F)N(C)C(=O)CC4)c2)C1 [Example 133] | 837 nM | 10 nM
COc1nc(Cl)cnc1C(=O)NCc1cncc(-c2ccc3c(c2)CCC(=O)N3C)c1 [Example 134] | 94 nM | 3 nM
Cc1noc(C(F)(F)F)c1C(=O)NCc1cncc(-c2ccc3c(c2)CCC(=O)N3C)c1 [Example 136] | 2430 nM | 47 nM
CN1C(=O)CCc2cc(-c3cncc(C4(NC(=O)c5ncccc5Cl)CC4)c3)ccc21 [Example 137, 3-Chloro-pyridine-2-carboxylic acid {1-[5-(1-methyl-2-oxo-1,2,3,4-tetrahydro-quinolin-6-yl)-pyridin-3-yl]-cyclopropyl}-amide] | 872 nM | 6 nM
CN1C(=O)CCc2cc(-c3cncc(C(C)(C)NC(=O)c4ncccc4Cl)c3)ccc21 [Example 138] | 267 nM | 3 nM
Cc1noc(C)c1C(=O)NC(C)(C)c1cncc(-c2ccc3c(c2)CCC(=O)N3C)c1 [Example 139] | 455 nM | 18 nM
O=C1CCc2cc(-c3cncc(CNC(=O)c4ncccc4Cl)c3)ccc2N1 [Example 140, 3-Chloro-pyridine-2-carboxylic acid [5-(2-oxo-1,2,3,4-tetrahydro-quinolin-6-yl)-pyridin-3-ylmethyl]-amide] | 6650 nM | 114 nM
Cc1noc(C)c1C(=O)NCc1cncc(-c2ccc3c(c2)CCC(=O)N3)c1 [Example 141, 3,5-Dimethyl-isoxazole-4-carboxylic acid [5-(2-oxo-1,2,3,4-tetrahydro-quinolin-6-yl)-pyridin-3-ylmethyl]-amide] | 19900 nM | 856 nM
CN1C(=O)CCc2cc(-c3cncc(C4(NC(=O)c5ncccc5Cl)CC4)c3)c(F)cc21 [Example 142] | 380 nM | 3 nM
Cc1cccnc1C(=O)NC1(c2cncc(-c3ccc4c(c3)CCC(=O)N4C)c2)CC1 [Example 143] | 51 nM | 9 nM
CCC(=O)N[C@H]1CC[C@H](Oc2cncc(-c3ccc4c(c3)CCC(=O)N4C)c2)CC1 [Example 144] | 460 nM | 4 nM
CN1C(=O)CCc2cc(-c3cncc(CNC(=O)c4cnoc4C(F)(F)F)c3)ccc21 [Example 145] | 3780 nM | 175 nM
CCS(=O)(=O)NCCOc1cncc(-c2ccc3c(c2)CCC(=O)N3C)c1 [Example 151, ethanesulfonic acid {2-[5-(1-methyl-2-oxo-1,2,3,4-tetrahydro-quinolin-6-yl)-pyridin-3-yloxy]-ethyl}-amide] | 90 nM | 5 nM
CN1C(=O)CCc2cc(-c3cncc(CNS(=O)(=O)c4cccc(Cl)c4)c3)ccc21 [Example 152, 3-Chloro-N-[5-(1-methyl-2-oxo-1,2,3,4-tetrahydro-quinolin-6-yl)-pyridin-3-ylmethyl]-benzenesulfonamide] | 4750 nM | 154 nM
COc1ccc(S(=O)(=O)NCc2cncc(-c3ccc4c(c3)CCC(=O)N4C)c2)cn1 [Example 153, 6-Methoxy-pyridine-3-sulfonic acid [5-(1-methyl-2-oxo-1,2,3,4-tetrahydro-quinolin-6-yl)-pyridin-3-ylmethyl]-amide] | 11100 nM | 375 nM
